The test system of assay [1] is HEK293. The assay is described as follows: cells. As to conditions: Homo sapiens.
Assay [2] addresses T1, High affinity choline transporter 1 (Homo sapiens, UniProt Q9GZV3).
T1 sequence (Q9GZV3 whole entry): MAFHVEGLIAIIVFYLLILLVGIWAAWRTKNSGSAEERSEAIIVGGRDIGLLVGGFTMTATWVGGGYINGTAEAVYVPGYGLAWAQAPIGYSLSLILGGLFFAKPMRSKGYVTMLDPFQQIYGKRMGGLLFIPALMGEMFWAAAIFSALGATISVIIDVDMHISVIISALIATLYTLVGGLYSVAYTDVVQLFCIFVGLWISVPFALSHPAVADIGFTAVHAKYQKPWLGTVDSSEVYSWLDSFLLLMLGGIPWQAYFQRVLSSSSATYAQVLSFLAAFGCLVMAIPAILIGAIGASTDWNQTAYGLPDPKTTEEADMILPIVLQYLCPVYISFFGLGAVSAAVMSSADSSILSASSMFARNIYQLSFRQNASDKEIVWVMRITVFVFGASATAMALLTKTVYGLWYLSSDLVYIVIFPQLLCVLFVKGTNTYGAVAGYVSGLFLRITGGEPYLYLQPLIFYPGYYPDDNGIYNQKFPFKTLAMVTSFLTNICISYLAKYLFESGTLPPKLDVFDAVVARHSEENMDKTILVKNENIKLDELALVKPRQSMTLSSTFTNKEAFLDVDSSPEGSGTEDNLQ
As to the kind of experiment: CHT inhibitors, dose response, cell-based, 5-point CRC, membrane potential dye (AID 504840). Type of assay: functional.

Assay [3] in a line: Luminescence Cell-Based Dose Confirmation HTS to Identify Inhibitors of Platelet Dense Granule Release. [Related pubchem assays: 1663 (Primary HTS), 1678 (Summary of Project)]. Type of assay: functional.
The subject of assay [4] is HEK293. As to the kind of experiment: cells. As to conditions: Homo sapiens. This is another data set of the same source.
For assay [5], the target named is T1, High affinity choline transporter 1. As to the kind of experiment: CHT inhibitors, dose response, cell-based, 10-point CRC, membrane potential dye (AID 588401).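 Note: membrane potential dye fluorescence of choline-evoked depolarization via CHT.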 Type of assay: functional.
Assay [6] deals with Luciferin 4-monooxygenase (Photinus pyralis, UniProt P08659). The assay is described as follows: firefly luciferase enzyme inhibitors, dose response, biochemical, luminescence (AID 1891).
Assay [7] concerns the target Multidrug resistance protein CDR2 (Candida albicans (strain SC5314 / ATCC MYA-2876) (Yeast), UniProt P78595). The assay is described as follows: CaCDR2 efflux pump inhibitors in yeast, dose response, S. cerevisiae AD1-8u, singleplex, Cherry Pick1 hits (AID 588604). The format is functional.

Structures are written as SMILES. Activity calls are given as the source filed them. Bounds are passed on as bounds.

Chain of Luciferin 4-monooxygenase (P08659 whole entry): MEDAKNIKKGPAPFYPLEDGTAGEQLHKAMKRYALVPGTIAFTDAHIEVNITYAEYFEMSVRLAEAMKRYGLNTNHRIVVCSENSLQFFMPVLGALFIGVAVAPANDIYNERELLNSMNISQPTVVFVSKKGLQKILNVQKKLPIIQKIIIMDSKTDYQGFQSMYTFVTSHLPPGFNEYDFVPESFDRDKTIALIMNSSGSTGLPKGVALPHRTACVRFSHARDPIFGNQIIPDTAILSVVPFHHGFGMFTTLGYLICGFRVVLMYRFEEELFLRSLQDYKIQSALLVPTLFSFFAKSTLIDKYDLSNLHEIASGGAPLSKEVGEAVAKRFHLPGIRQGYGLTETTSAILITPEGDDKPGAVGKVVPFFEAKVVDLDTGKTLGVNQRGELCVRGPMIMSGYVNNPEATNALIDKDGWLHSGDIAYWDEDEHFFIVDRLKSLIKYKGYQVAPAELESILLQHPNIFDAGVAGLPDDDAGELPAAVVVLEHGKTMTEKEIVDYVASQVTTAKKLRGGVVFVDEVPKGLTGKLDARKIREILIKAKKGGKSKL
Chain of Multidrug resistance protein CDR2 (P78595 whole entry): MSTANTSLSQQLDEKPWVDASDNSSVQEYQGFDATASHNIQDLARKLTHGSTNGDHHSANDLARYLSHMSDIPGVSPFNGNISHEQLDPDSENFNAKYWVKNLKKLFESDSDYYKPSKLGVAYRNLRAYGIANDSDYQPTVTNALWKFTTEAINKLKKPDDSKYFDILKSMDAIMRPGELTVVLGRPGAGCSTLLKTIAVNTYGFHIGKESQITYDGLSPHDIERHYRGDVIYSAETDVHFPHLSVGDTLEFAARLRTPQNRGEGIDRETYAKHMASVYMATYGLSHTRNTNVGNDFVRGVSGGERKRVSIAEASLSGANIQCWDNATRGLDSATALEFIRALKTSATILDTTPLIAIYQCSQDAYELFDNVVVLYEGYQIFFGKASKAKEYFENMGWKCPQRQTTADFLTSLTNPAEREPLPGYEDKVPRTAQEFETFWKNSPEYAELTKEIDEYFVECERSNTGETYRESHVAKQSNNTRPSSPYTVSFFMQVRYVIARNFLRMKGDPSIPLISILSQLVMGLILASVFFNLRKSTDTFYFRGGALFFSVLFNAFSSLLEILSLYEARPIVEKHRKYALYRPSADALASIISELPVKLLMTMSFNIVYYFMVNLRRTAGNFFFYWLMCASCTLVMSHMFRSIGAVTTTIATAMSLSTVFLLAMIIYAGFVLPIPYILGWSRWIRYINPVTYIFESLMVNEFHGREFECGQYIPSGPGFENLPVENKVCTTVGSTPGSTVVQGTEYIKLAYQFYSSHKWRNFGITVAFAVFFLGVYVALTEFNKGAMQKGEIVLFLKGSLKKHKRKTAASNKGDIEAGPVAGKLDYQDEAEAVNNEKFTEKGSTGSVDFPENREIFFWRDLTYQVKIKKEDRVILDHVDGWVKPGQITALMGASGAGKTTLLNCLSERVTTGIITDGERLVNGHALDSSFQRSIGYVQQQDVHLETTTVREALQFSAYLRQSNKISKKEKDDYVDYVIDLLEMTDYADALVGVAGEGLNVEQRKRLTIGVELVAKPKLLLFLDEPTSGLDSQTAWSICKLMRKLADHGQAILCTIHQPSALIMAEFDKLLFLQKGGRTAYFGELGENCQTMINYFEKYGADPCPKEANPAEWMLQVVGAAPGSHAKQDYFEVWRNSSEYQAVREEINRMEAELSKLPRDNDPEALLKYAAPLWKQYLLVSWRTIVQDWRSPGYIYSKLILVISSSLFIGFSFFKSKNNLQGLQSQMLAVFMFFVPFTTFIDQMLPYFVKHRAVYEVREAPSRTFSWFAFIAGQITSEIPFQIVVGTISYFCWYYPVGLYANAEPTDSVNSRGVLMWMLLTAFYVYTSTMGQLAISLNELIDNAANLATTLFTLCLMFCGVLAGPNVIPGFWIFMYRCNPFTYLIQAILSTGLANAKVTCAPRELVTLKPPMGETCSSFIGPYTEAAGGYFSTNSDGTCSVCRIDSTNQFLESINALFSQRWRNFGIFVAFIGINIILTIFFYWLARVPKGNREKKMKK

As for `C=C[C@@]1(C)CC(=O)[C@]2(O)[C@@]3(C)[C@@H](O)CCC(C)(C)[C@@H]3[C@H](OC(C)=O)[C@H](O)[C@@]2(C)O1`, the EC50 – broadly, the concentration at which the effect is half-maximal – is > 59.7 µM (inactive) in assay [1], 4.26 µM (active) in assay [3], > 59.7 µM (inactive) in assay [4] and > 112 µM (not active) in assay [6]. Moreover, the IC50 (usually the concentration that inhibits the measured activity by half) in assay [2] is 1.52 µM (active); in assay [5] it was 0.815 µM (active).

Take `O=C(Cn1c(COc2ccccc2)nc2ccccc21)Nc1cc(Cl)c(Cl)cc1Cl`: in assay [7], the EC50 was 15.7 µM (active).

These data come from ChEMBL document CHEMBL1201862, “PubChem BioAssay data set” (2004).
